pIC50: −log10 of the molar value.
Target: T1, Human G288S SLACK (Homo sapiens, UniProt Q5JUK3, G269S)
T1 construct: host or cells: CHO-K1
T1 sequence (Q5JUK3 1-1235 isoform Q5JUK3-3 G288S): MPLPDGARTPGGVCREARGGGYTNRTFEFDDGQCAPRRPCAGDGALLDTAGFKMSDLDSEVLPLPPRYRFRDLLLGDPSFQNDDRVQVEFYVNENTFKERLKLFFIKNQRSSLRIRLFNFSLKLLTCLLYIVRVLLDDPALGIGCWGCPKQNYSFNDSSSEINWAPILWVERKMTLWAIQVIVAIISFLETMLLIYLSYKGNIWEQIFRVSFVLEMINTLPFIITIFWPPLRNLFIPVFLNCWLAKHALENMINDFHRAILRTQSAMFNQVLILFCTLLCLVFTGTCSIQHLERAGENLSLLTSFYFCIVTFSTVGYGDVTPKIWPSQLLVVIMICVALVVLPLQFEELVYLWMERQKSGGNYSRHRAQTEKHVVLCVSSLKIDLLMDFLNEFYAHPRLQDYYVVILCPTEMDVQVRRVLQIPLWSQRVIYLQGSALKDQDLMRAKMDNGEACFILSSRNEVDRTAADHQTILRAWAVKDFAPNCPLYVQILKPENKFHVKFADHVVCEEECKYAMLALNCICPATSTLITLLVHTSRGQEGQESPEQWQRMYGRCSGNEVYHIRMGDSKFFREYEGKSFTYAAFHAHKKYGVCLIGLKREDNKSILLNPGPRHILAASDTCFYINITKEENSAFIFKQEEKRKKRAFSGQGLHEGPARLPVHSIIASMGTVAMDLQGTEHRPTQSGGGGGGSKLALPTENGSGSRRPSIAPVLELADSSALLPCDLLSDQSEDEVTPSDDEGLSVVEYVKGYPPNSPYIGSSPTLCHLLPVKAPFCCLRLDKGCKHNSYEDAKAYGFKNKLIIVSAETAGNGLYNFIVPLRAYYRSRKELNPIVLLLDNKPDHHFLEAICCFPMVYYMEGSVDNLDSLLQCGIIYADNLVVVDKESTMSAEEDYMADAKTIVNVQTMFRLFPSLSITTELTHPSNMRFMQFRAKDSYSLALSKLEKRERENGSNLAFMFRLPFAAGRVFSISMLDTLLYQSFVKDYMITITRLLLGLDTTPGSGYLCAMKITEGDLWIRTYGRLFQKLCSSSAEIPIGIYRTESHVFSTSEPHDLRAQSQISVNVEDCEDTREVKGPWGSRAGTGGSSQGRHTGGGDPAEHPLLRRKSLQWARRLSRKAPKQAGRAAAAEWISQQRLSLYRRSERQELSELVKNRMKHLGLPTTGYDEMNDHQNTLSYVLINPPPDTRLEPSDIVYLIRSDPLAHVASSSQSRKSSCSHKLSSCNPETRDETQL
Experiment: Whole-cell APC in CHO-K1 cells stably expressing human G288S SLACK
Type: cell-based
Description: Finally, we chose to screen the same two compounds versus mouse SLACK and two clinically relevant GOF SLACK mutants in APC assays utilizing CHO-K1 cells stably expressing these targets (Table 7). Screening versus the mouse homolog was deemed important for evaluating the potential of the series to ultimately lead to a useful in vivo tool via further optimization.
Stably transfected monoclonal HEK293 cell lines expressing SLICK, Maxi-K α1/β3, Maxi-K α1/β4, CaV3.2, GIRK 1/2, KV2.1, KV7.2, NaV1.7, and TASK-1 were generated as previously described. Stably transfected monoclonal HEK293 cell lines expressing hERG were generated as previously described. CHO-K1 cells expressing human SLACK and disease-associated human SLACK mutations, G288S and A934T, were generated by transfecting a PiggyBac TRE mammalian expression vector (VectorBuilder, Chicago, IL, USA) containing KCNT1. FuGENE 6 (Promega, Madison, WI, USA) transfection reagent and protocol, together with Opti-MEM (Thermo Fisher Scientific, Waltham, MA, USA), were utilized according to the manufacturer’s instructions.
Automated patch clamp recording was performed with a SyncroPatch 768 PE system (Nanion, Munich, Germany) as previously described. Whole-cell recordings were performed at room temperature. Cells were harvested by first washing with PBS without Mg^2+ or Ca^2+ (Gibco, Billings, MT, USA) to remove cell culture medium, followed by dissociation with TryPLE (Gibco, Billings, MT, USA). Cells were then resuspended and diluted to 200,000 cells/mL in external solution. External solution contained 105 mM NaCl, 4 mM KCl, 1 mM MgCl2, 5 mM CaCl2, 10 mM HEPES, 40 mM N-Methyl-D-glucamine chloride, titrated to pH 7.4 with NaOH and osmolarity of 300 mOsm/kg; internal solution contained 70 mM NaCl, 70 mM KF, 10 mM KCl, 5 mM EGTA, 5mM HEPES, titrated to a pH 7.2 with KOH and osmolarity of 295 mOsm/kg.
The APC protocol was set as following: Cells were held at […] −80 mV for 100 ms, then a ramp protocol was performed from −100 mV to 80 mV at 0.4 mV/ms, hold the cell at −80 mV for another 100 ms, then steps were performed at −20 mV, 0 mV, +20 mV, +40 mV, and +60 mV for 100 ms of each step. Whole-cell currents were measured at 0 mV and normalized to current after external buffer addition.

Row | Structure (SMILES) | G288S SLACK inhibition, result in words (APC, CHO-K1 cells) | pIC50 (APC, CHO-K1 cells, Human G288S SLACK) | Imax (Human G288S SLACK, maximum inhibition at 30 µM standardized to VU0606170 (set at 100%)) [%]
1 | CC(C)(Oc1ccc(Cl)cc1)C(=O)Nc1cnc(Oc2c(F)cccc2F)nc1 [Analog 40] | inactive | – | –
2 | CN(c1ccc(C#N)cc1)c1ncc(NC(=O)C(C)(C)Oc2ccc(Cl)cc2)cn1 [Analog 66] | only weakly active | < 5.00 | 40

Reference: article PMC11643494, “Structure–Activity Relationship Studies in a Series of 2-Aryloxy-N-(pyrimidin-5-yl)acetamide Inhibitors of SLACK Potassium Channels” (Molecules, 2024)
